Results taken from paper PMC9851200, “Multiparameter phenotypic screening for endogenous TFEB and TFE3 translocation identifies novel chemical series modulating lysosome function” (Autophagy, 2022).

Legend:
Format in all cases: binding
[1] = target: kinases (KINOMEscan panel) (Homo sapiens, UniProt P0C1S8); details: WEE2; NEW KINOMEscan
[2] = target: kinases (KINOMEscan panel) (Homo sapiens, UniProt P15056, V600E); details: kinase BRAF(V600E); NEW KINOMEscan
[3] = target: kinases (KINOMEscan panel) (Homo sapiens, UniProt P16234); details: PDGFRA; NEW KINOMEscan
[4] = target: kinases (KINOMEscan panel) (Homo sapiens, UniProt P30291); details: WEE1; NEW KINOMEscan
[5] = target: kinases (KINOMEscan panel) (Homo sapiens, UniProt P42336, H1047L); details: NEW KINOMEscan
[6] = target: T1, kinases (KINOMEscan panel) (Homo sapiens, UniProt P51813); details: BMX; NEW KINOMEscan
T1 sequence (P51813 1-675): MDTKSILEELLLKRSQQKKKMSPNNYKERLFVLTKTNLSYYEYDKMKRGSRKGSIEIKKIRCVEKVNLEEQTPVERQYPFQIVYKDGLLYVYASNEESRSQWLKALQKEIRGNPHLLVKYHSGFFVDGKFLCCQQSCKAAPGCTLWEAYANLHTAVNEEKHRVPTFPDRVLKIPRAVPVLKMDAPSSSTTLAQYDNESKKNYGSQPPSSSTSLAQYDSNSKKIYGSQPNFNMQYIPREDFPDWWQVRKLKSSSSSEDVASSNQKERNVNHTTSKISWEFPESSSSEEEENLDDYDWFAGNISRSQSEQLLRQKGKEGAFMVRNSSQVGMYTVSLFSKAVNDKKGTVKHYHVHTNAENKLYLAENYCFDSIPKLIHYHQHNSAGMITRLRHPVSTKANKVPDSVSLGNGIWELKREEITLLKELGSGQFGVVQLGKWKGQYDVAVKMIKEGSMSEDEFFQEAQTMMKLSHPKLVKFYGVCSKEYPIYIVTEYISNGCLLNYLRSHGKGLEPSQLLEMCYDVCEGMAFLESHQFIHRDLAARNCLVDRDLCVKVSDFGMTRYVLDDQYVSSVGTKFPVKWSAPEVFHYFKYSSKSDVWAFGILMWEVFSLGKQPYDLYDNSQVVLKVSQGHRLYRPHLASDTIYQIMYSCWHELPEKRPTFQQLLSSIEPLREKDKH

[7] = target: T2, kinases (KINOMEscan panel) (Homo sapiens, UniProt P51817); details: kinase PRKX; NEW KINOMEscan
T2 sequence (P51817 1-358): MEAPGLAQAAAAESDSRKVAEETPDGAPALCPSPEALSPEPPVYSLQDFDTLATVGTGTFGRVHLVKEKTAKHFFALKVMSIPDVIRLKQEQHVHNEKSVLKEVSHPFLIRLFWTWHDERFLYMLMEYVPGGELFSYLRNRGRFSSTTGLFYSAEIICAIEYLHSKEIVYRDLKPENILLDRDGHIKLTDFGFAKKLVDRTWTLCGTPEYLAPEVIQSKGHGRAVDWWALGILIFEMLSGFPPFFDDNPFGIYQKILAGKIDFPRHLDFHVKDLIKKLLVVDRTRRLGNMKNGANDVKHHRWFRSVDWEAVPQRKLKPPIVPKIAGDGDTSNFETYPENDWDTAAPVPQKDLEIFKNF

[8] = target: kinases (KINOMEscan panel) (Homo sapiens, UniProt Q13464); details: ROCK1; NEW KINOMEscan
[9] = target: kinases (KINOMEscan panel) (Homo sapiens, UniProt Q13627); details: NEW KINOMEscan
[10] = target: kinases (KINOMEscan panel) (Homo sapiens, UniProt Q15569); details: TESK1; NEW KINOMEscan
kinases (KINOMEscan panel) (Homo sapiens, UniProt Q15569), sequence (Q15569 whole entry): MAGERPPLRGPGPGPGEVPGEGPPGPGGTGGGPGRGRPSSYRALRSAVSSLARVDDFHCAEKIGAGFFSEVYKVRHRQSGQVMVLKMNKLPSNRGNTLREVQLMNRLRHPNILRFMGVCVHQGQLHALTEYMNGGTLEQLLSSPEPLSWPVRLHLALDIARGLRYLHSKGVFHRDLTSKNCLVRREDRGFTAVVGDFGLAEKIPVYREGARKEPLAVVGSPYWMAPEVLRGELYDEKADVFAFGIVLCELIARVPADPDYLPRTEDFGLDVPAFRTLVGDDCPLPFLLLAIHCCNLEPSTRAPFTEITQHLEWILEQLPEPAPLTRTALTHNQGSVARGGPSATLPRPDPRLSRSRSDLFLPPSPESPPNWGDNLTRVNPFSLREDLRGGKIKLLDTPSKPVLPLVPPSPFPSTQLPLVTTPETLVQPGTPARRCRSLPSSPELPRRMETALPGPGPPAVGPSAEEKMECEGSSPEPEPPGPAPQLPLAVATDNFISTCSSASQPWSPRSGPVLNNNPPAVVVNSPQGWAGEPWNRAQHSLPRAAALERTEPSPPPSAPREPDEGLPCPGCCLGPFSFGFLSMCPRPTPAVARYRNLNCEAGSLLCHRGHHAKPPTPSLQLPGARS

[11] = target: kinases (KINOMEscan panel) (Homo sapiens, UniProt Q16513); details: kinase PKN2; NEW KINOMEscan
kinases (KINOMEscan panel) (Homo sapiens, UniProt Q16513), sequence (Q16513 whole entry): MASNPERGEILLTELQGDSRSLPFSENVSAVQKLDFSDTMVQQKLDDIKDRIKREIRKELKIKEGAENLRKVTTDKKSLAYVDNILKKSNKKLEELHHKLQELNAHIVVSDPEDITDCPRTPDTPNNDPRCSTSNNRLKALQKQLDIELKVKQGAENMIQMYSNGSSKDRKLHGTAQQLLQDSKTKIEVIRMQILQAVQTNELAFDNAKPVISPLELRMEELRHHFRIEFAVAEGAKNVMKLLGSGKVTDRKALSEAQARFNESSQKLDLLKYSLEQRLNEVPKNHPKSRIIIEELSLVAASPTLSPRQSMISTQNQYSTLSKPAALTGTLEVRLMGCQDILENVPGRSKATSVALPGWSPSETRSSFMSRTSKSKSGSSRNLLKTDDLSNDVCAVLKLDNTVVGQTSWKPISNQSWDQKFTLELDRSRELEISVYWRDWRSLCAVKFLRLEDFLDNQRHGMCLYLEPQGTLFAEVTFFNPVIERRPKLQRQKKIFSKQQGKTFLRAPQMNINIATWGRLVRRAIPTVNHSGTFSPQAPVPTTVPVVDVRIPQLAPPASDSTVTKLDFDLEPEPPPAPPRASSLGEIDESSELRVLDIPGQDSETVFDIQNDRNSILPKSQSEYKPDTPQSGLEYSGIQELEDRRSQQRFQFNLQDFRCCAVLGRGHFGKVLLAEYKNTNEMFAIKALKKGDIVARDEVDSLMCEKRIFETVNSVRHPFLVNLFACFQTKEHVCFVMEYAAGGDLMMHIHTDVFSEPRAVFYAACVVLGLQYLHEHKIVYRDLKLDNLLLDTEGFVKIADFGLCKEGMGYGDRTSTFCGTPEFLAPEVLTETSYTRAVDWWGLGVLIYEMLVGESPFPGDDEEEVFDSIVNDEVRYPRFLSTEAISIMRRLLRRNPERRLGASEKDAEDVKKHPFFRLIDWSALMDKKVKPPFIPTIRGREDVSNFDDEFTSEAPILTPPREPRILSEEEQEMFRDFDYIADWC

[12] = target: kinases (KINOMEscan panel) (Homo sapiens, UniProt Q9H1R3); details: MYLK2; NEW KINOMEscan
[13] = target: kinases (KINOMEscan panel) (Homo sapiens, UniProt Q9P0L2); details: NEW KINOMEscan
kinases (KINOMEscan panel) (Homo sapiens, UniProt Q9P0L2), sequence (Q9P0L2 whole entry): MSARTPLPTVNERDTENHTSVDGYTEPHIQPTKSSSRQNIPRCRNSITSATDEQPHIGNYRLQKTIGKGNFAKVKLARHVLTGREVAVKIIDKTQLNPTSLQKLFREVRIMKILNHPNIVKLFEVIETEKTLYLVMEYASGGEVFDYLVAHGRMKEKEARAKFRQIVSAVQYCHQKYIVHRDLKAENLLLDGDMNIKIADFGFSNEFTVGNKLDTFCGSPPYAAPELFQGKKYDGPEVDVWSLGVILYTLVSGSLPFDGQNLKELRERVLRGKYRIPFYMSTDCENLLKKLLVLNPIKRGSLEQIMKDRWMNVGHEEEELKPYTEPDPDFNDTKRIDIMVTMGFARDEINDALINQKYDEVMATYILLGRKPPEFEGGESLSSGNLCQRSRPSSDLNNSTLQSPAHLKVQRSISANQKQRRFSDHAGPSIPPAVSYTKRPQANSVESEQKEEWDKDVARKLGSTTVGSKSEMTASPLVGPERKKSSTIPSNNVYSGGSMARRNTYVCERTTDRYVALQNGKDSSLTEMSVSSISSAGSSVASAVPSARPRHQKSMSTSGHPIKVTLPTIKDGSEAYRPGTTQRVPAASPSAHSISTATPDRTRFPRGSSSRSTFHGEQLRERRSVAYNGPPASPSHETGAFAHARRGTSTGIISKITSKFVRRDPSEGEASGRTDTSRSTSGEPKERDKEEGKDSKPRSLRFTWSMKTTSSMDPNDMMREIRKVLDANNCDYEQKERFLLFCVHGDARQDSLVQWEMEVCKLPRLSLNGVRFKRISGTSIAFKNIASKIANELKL

[14] = target: kinases (KINOMEscan panel) (Homo sapiens, UniProt Q9P2K8, S808G)
kinases (KINOMEscan panel) (Homo sapiens, UniProt Q9P2K8, S808G), sequence (Q9P2K8 whole entry S808G): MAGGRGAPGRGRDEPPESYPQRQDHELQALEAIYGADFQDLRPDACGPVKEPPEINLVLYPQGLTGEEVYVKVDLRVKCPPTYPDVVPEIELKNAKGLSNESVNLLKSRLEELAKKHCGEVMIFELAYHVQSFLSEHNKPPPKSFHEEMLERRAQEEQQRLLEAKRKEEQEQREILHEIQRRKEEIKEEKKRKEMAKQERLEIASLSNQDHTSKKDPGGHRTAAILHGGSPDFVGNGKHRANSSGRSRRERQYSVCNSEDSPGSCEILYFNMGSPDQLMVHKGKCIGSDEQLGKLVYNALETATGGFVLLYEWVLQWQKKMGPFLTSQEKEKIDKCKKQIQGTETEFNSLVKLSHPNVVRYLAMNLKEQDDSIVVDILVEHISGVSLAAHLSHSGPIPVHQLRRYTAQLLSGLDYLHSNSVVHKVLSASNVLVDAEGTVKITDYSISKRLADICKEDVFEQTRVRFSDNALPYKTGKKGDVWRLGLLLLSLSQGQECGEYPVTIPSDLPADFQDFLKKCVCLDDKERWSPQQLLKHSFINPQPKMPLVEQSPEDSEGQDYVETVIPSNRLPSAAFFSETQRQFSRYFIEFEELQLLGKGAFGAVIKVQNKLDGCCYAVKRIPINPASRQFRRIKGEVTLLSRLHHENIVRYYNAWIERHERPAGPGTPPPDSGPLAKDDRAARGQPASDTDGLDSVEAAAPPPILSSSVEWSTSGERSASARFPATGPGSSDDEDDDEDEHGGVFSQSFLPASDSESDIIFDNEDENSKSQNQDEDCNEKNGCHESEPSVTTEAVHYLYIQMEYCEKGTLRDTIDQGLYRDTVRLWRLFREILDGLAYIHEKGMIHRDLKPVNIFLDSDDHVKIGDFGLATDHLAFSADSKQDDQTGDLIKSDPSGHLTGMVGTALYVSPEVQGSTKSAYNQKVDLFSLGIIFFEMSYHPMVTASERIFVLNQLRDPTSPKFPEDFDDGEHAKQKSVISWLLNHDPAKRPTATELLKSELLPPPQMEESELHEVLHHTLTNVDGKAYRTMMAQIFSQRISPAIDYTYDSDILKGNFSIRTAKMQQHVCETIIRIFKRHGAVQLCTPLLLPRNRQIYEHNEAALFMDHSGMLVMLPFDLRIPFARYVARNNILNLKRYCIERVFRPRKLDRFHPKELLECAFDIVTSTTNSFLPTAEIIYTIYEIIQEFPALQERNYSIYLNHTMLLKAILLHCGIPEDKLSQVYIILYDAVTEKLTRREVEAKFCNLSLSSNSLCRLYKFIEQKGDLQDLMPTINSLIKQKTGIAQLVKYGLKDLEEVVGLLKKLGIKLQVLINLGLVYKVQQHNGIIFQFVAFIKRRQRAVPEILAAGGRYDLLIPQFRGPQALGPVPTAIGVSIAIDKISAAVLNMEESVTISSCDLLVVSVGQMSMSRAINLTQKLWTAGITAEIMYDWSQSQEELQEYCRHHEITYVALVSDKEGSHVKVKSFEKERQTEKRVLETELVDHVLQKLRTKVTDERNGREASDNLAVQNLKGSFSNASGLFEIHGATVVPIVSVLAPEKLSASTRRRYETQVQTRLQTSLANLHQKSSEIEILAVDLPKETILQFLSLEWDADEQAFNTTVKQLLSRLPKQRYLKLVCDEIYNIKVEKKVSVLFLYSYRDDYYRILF

[15] = target: kinases (KINOMEscan panel) (Homo sapiens, UniProt Q9UIK4); details: kinase DAPK2; NEW KINOMEscan
kinases (KINOMEscan panel) (Homo sapiens, UniProt Q9UIK4), sequence (Q9UIK4 whole entry): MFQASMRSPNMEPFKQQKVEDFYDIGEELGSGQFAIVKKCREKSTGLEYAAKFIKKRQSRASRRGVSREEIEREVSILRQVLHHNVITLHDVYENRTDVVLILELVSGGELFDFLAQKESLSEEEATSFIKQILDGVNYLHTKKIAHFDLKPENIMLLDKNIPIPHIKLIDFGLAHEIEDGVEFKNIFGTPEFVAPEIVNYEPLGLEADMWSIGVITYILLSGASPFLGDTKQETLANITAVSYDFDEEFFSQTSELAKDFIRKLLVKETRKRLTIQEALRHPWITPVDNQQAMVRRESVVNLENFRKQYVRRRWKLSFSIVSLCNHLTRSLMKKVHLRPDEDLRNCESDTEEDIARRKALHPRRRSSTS

[16] = target: T3, kinases (KINOMEscan panel) (Homo sapiens, UniProt Q9Y616); details: IRAK3; NEW KINOMEscan
T3 sequence (Q9Y616 1-596): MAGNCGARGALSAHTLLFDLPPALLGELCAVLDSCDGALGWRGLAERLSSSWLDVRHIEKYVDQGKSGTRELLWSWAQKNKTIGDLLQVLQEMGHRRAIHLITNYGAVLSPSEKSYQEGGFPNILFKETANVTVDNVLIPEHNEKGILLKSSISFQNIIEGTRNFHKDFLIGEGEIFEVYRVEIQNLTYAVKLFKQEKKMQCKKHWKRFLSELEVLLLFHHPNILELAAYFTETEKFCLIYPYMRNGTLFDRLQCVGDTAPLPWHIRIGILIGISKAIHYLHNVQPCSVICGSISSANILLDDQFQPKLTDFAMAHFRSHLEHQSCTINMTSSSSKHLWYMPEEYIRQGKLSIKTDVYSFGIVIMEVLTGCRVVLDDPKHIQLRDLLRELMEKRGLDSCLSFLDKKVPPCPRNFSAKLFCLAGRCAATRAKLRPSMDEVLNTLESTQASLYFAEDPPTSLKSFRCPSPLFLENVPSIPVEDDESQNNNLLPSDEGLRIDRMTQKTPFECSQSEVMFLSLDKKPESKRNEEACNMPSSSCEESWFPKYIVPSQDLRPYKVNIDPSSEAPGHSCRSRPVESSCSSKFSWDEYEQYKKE

kinases (KINOMEscan panel) (Homo sapiens, UniProt P0C1S8), sequence (P0C1S8 whole entry): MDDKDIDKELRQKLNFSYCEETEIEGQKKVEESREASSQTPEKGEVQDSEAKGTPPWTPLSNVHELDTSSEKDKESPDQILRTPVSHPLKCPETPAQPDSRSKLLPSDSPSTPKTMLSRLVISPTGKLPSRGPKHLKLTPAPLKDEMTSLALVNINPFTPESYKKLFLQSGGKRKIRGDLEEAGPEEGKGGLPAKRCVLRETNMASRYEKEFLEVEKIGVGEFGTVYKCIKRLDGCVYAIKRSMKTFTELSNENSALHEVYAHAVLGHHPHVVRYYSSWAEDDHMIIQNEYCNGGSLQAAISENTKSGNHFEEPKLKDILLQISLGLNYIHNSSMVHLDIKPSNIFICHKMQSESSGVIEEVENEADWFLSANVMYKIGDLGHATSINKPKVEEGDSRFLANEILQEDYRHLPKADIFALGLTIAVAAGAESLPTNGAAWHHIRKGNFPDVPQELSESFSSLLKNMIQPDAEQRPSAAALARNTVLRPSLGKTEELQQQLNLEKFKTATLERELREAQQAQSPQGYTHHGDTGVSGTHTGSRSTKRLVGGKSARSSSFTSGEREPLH

SMILES | KINOMEscan WEE2 [1] | KINOMEscan BRAF(V600E) [2] | KINOMEscan PDGFRA [3] | KINOMEscan WEE1 [4] | KINOMEscan PIK3CA(H1047L) [5] | KINOMEscan BMX [6] | KINOMEscan PRKX [7] | KINOMEscan ROCK1 [8] | KINOMEscan DYRK1A [9] | KINOMEscan TESK1 [10] | KINOMEscan PKN2 [11] | KINOMEscan MYLK2 [12] | KINOMEscan MARK1 [13] | KINOMEscan EIF2AK4/GCN2(Kin.Dom.2,S808G) [14] | KINOMEscan DAPK2 [15] | KINOMEscan IRAK3 [16]
Cc1cccc(-c2nc(Nc3ccc4nn(C)cc4c3)c3ccccc3n2)n1 [NK167] | 0 | 0 | 0 | 0 | 4 | 0 | 0 | 0 | 0 | 0 | 0 | 0 | 21 | 38 | 0 | 0
Cc1cccc(-c2nc(N(C)c3ccc4ncsc4c3)c3ccccc3n2)n1 [NK-161] | 5 | 0 | 0 | 0 | 23 | 6 | 7 | 12 | 20 | 0 | 0 | 9 | 13 | 53 | 0 | 7
